Source: US4244965A, “Azetidinoyl ethers” (Beecham Group Limited, priority 1978, dated 1981)
In brackets after ≈: the same amount, converted by molar mass. Several values for one entry are separate records, joined by “and”; a condition that tells them apart may be missing. Equal values may be shown once. Read-outs that look alike come from different tables or passages of the source. One block for each molecule: values may come before it.

Key:
Kleb E 70 = test: standard microliter MIC test (Demonstrations 3-5); assay type: cell-based, Klebsiella
E. coli JT 410 [1] = test: standard microliter MIC test (Demonstrations 3-5); assay type: cell-based
E. coli JT 39 [2] = test: standard microliter MIC test (Demonstrations 3-5); assay type: cell-based; conditions: for MIC: alone
Staph Russell = test: standard microliter MIC test (Demonstrations 3-5); assay type: cell-based; conditions: for MIC: alone
Proteus C 889 [3] = test: standard microliter MIC test (Demonstrations 3-5); assay type: cell-based; conditions: for MIC (ampicillin + title compound): trailing end point; for MIC: alone
Escherichia coli JT39 [4] = test: Amoxycillin with or without synergist, E. coli JT39 intraperitoneal infection of mice, subcutaneous (Demonstration 1a); assay type: in vivo, Escherichia coli (infected mice); conditions: JT39, sc, antibiotic alone, sub-cutaneous, 1 and 5 hours post infection, read-out: CD50 (the source's name)
Experimental: (§1) a. Sub-cutanvenous administration: Groups of mice were infected inter peritoneally with Escherichia coli JT39. At 1 and 5 hours post infection the mice were treated with amoxycillin (Amox.) or with amoxycillin and synergist. The solutions were made up in phosphate buffer.

Escherichia coli JT 39 = test: intra peritoneal infection due to Escherichia coli JT 39 in mice, subcutaneous dosing (Demonstration 2b); assay type: in vivo, Escherichia coli (infected mice); conditions: for ED50: Escherichia coli, JT39, sc, alone, × 2, sub-cutaneous, 1 and 5 hours post infection, read-out: C50
Experimental: b. […] Dosing was sub-cutaneous and 1 and 5 hours post infection.

Escherichia coli JT39 [5] = test: Amoxycillin with or without synergist, E. coli JT39 intraperitoneal infection of mice, oral (Demonstration 1b); assay type: in vivo, Escherichia coli (infected mice); conditions: antibiotic alone, oral, 1, 3 and 5 hours post-infection, read-out: CD50 (the source's name)
Experimental: (§2) b. Oral administration: Groups of mice were infected inter peritoneally with Escherichia coli JT39. At 1, 3 and 5 hours post-infection the mice were treated with amoxycillin or with amoxycillin and synergist. The solutions were made up in phosphate buffer.

Escherichia coli JT39 [6] = test: standard MIC test (Demonstration 1c); assay type: cell-based
E. coli JT 39 [7] = test: conventional microliter method, MIC (Demonstration 2a); assay type: cell-based; conditions: Escherichia coli, JT39
Experimental: (§3) a. The antibacterial and synergistic activity of the title compound (referred to as "Sunergist" in the Table) was determined by a conventional microliter method.

Proteus C 889 [8] = test: as above; assay type: cell-based
Experimental: as §3

Pseudomonas Dalgleish = test: microbe, parasite or virus in culture; assay type: cell-based
Experimental: as §3

Staph. aureus Russell = test: standard MIC test (Demonstration 1c); assay type: cell-based; conditions: Staphylococcus aureus
[9] = Average blood levels after oral administration to dogs (Demonstration 6); assay type: in vivo; conditions: dog, 5 mg/kg
Experimental: (§4) Lithium 9-O-(azetidin-2'-on-4'-yl)clavulanate was administered orally to a group of eight dogs, weighing 9-12 kg, at a dosage of 5 mg/kg.
The level of the compound in the blood was measured after 0.25, 0.5, 1, 2, 4 and 6 hours. The results are shown in Table 1, with those for sodium clavulanate for comparison.

Kleb. E 70 = test: conventional microliter method, MIC (Demonstration 2a); assay type: cell-based; conditions: Klebsiella; alone
Experimental: as §3

Staph. Russell = test: as above; assay type: cell-based; conditions: alone
Experimental: as §3

E. coli JT 410 [10] = test: as above; assay type: cell-based; conditions: Escherichia coli, JT410; alone
Experimental: as §3

[11] = Signs of drug toxicity during the in-vivo tests (Demonstration 1); conditions: mice
Experimental: as §1, with “buffer. The results were as follows:” for “buffer.”
as §2

Klebsiella E70 = test: standard MIC test (Demonstration 1c); assay type: cell-based; conditions: alone
[12] = system: gram negative bacteria such as Escherichia and Klebsiella and gram positive bacteria such as Staphylococcus; test: Summary of the synergy tests with penicillins (Demonstration 1d); conditions: summary of preceding tests
Experimental: as §1, with “buffer. The results were as follows:” for “buffer.”
as §2

[13] = Urinary recovery after oral administration to dogs (Demonstration 6); assay type: in vivo; conditions: for dose excreted at 24 h: dog, urine, po, 5 mg/kg
Experimental: as §4
The urinary recovery of the compound over 24 hours was also measured.

[14] = Klebsiella, E70, alone, read-out: MIC
[15] = Escherichia coli, JT410, alone, read-out: MIC
[16] = Escherichia coli, JT39, read-out: MIC

SMILES: NCC(=O)NCCOCC=C1OC2CC(=O)N2C1C(=O)O (centres unmarked) [9-O-[(N-Glycyl)-2-aminoethyl]clavulanic acid]
MIC (ampicillin + title compound) (Kleb E 70; Amp. + 1 μg/ml of title comp.): 6.25 µg/mL
MIC (ampicillin + title compound) (Kleb E 70; Amp. + 5 μg/ml of title comp.): 1.5 µg/mL
MIC (Kleb E 70; alone): 62.5 µg/mL (≈ 209 µM)
MIC (ampicillin + title compound) (E. coli JT 410 [1]; Amp. + 5 μg/ml of title comp.): 62.5 µg/mL
MIC (E. coli JT 410 [1]; alone): 62.5 µg/mL (≈ 209 µM)
MIC (ampicillin + title compound) (E. coli JT 39 [2]; Amp. + 1 μg/ml of title comp.): 31.2 µg/mL
MIC (ampicillin + title compound) (E. coli JT 39 [2]; Amp. + 5 μg/ml of title comp.): 8 µg/mL
MIC (E. coli JT 39 [2]): 31.2 µg/mL (≈ 104 µM)
MIC (ampicillin + title compound) (Staph Russell; Amp. + 1 μg/ml of title comp.): 1.25 µg/mL
MIC (ampicillin + title compound) (Staph Russell; Amp. + 5 μg/ml of title comp.): 0.15 µg/mL
MIC (Staph Russell): 8 µg/mL (≈ 26.7 µM)
MIC (ampicillin + title compound) (Proteus C 889 [3]; Amp. + 1 μg/ml of title comp.): 8 µg/mL
MIC (ampicillin + title compound) (Proteus C 889 [3]; Amp. + 5 μg/ml of title comp.): 2 µg/mL
MIC (Proteus C 889 [3]): 250 µg/mL (≈ 835 µM)

MIC (Kleb E 70; [14]): 62.5 µg/mL (≈ 221 µM)
MIC (E. coli JT 410 [1]; [15]): 62.5 µg/mL (≈ 221 µM)
MIC (E. coli JT 39 [2]; [16]): 62.5 µg/mL (≈ 221 µM)
MIC (Staph Russell; read-out: MIC): 62.5 µg/mL (≈ 221 µM)
MIC (Proteus C 889 [3]; read-out: MIC): 62.5 µg/mL (≈ 221 µM)
SMILES: N[C@@H]1C(=O)N[C@H]1OC/C=C1\O[C@@H]2CC(=O)N2[C@H]1C(=O)O [Example 13, 9-O-[(3S,4S)-2'-Oxo-3'-aminoazetidin-4'-yl]clavulanic acid]

SMILES: CC1(C)S[C@@H]2[C@H](NC(=O)[C@H](N)c3ccc(O)cc3)C(=O)N2[C@H]1C(=O)O [Amoxycillin, amoxycillin]
ED50 (Escherichia coli JT39 [4]): > 1000 mg/kg
ED50 (Escherichia coli JT 39): > 1000 mg/kg
ED50 (Escherichia coli JT39 [5]): > 1000 mg/kg

SMILES: CC1(C)S[C@@H]2[C@H](NC(=O)[C@H](N)c3ccccc3)C(=O)N2[C@H]1C(=O)O [Ampicillin, ampicillin, reference compound]
MIC (Kleb E 70; Klebsiella, E70): 1000 µg/mL (≈ 2860 µM)
MIC (Kleb E 70; Klebsiella, E70, alone): 500 µg/mL (≈ 1430 µM)
MIC (Escherichia coli JT39 [6]): 2000 µg/mL (≈ 5720 µM)
MIC (E. coli JT 410 [1]; Escherichia coli, JT410): 250 µg/mL (≈ 715 µM)
MIC (E. coli JT 39 [7]): 2000 µg/mL
MIC (Proteus C 889 [8]): 1000 µg/mL
MIC (E. coli JT 39 [2]; Escherichia coli, JT39): 2000 µg/mL (≈ 5720 µM)
MIC (E. coli JT 39 [2]): 1000 µg/mL (≈ 2860 µM)
MIC (Pseudomonas Dalgleish): > 2000 µg/mL
MIC (Staph. aureus Russell): 62 µg/mL (≈ 177 µM)
MIC (Proteus C 889 [3]): 2000 µg/mL and > 2000 µg/mL

SMILES: Cc1nnc(SCC2=C(C(=O)O)N3C(=O)[C@@H](NC(=O)Cn4cnnn4)[C@H]3SC2)s1 [Cefazolin]
ED50 (Escherichia coli JT 39): 13 mg/kg

concentration at 0.25 h [9]: 960 ng/mL
concentration at 0.5 h [9]: 3110 ng/mL
concentration at 1 h [9]: 2910 ng/mL
concentration at 2 h [9]: 1680 ng/mL
concentration at 4 h [9]: 280 ng/mL
SMILES: O=C(O)[C@H]1/C(=C/CO)O[C@@H]2CC(=O)N21 [sodium clavulanate, reference compound]

SMILES: CC(NC=O)OC/C=C1\O[C@@H]2CC(=O)N2[C@H]1C(=O)O (some centres unmarked) [Example 9, Lithium 9-O-(1-formamidoethyl)clavulanate]
effect on the effectiveness of amoxycillin (Escherichia coli JT 39; with amoxycillin, sub-cutaneous): enhance the effectiveness of amoxycillin
MIC (E. coli JT 39 [7]; alone, read-out: MIC): 62.5 µg/mL
MIC (Kleb. E 70): 62.5 µg/mL
MIC (Staph. Russell): 8 µg/mL
MIC (Proteus C 889 [8]; alone, read-out: MIC): 62.5 µg/mL
MIC (E. coli JT 410 [10]): 31.2 µg/mL
MIC (Pseudomonas Dalgleish): > 500 µg/mL

SMILES: O=C1CC(OC/C=C2\O[C@@H]3CC(=O)N3[C@H]2C(=O)O)N1 (some centres unmarked) [Example 2, Sodium 9-O-(azetidin-2'-on-4'-yl)clavulanate]
signs of drug toxicity [11]: No signs of drug toxicity were observed
MIC (Klebsiella E70): 31.2 µg/mL
MIC (Escherichia coli JT39 [6]; alone, read-out: MIC): 31.2 µg/mL
synergism with penicillins such as amoxycillin [12]: effective synergist for penicillins such as amoxycillin
MIC (Staph. aureus Russell; alone, read-out: MIC): 8 µg/mL

MIC (Kleb E 70; [14]): 62.5 µg/mL (≈ 221 µM)
MIC (E. coli JT 410 [1]; [15]): 62.5 µg/mL (≈ 221 µM)
MIC (E. coli JT 39 [2]; [16]): 31.2 µg/mL (≈ 110 µM)
MIC (Staph Russell; read-out: MIC): 62.5 µg/mL (≈ 221 µM)
MIC (Proteus C 889 [3]; read-out: MIC): 62.5 µg/mL (≈ 221 µM)
SMILES: N[C@@H]1C(=O)N[C@@H]1OC/C=C1\O[C@@H]2CC(=O)N2[C@H]1C(=O)O [Example 14, 9-O-[(3S,4R)-2'-Oxo-3'-aminoazetidin-4'-yl]-clavulanic acid]

SMILES: O=C1CC(OC/C=C2\O[C@@H]3CC(=O)N3[C@H]2C(=O)O)N1 (some centres unmarked) [Example 27, Lithium 9-O-(2'-oxoazetidin-4'-yl)-clavulanate]
Urinary Recovery ([13]; 0-6 hour, Dog No. 1, 5 mg/kg): 10.8 mg
Urinary Recovery ([13]; 0-6 hour, Dog No. 2, 5 mg/kg): 14.8 mg
Urinary Recovery ([13]; 0-6 hour, Dog No. 3, 5 mg/kg): 13.1 mg
Urinary Recovery ([13]; 0-6 hour, Dog No. 4, 5 mg/kg): 29.5 mg
Urinary Recovery ([13]; 0-6 hour, Dog No. 5, 5 mg/kg): 18.5 mg
Urinary Recovery ([13]; 0-6 hour, Dog No. 6, 5 mg/kg): 9.2 mg
Urinary Recovery ([13]; 0-6 hour, Dog No. 7, 5 mg/kg): 9.25 mg
Urinary Recovery ([13]; 0-6 hour, Dog No. 8, 5 mg/kg): 12.15 mg
Urinary Recovery ([13]; 0-24 hour, Dog No. 1, 5 mg/kg): 11.7 mg
Urinary Recovery ([13]; 0-24 hour, Dog No. 2, 5 mg/kg): 17.4 mg
Urinary Recovery ([13]; 0-24 hour, Dog No. 3, 5 mg/kg): 18.8 mg
Urinary Recovery ([13]; 0-24 hour, Dog No. 4, 5 mg/kg): 29.9 mg
Urinary Recovery ([13]; 0-24 hour, Dog No. 5, 5 mg/kg): 19.6 mg
Urinary Recovery ([13]; 0-24 hour, Dog No. 6, 5 mg/kg): 10.3 mg
Urinary Recovery ([13]; 0-24 hour, Dog No. 7, 5 mg/kg): 11.1 mg
Urinary Recovery ([13]; 0-24 hour, Dog No. 8, 5 mg/kg): 12.3 mg
dose excreted at 24 h ([13]; Dog No. 1, read-out: Urinary Recovery, % over 24 hour): 20.1%
dose excreted at 24 h ([13]; Dog No. 2, read-out: Urinary Recovery, % over 24 hour): 38.6%
dose excreted at 24 h ([13]; Dog No. 3, read-out: Urinary Recovery, % over 24 hour): 32.1%
dose excreted at 24 h ([13]; Dog No. 4, read-out: Urinary Recovery, % over 24 hour): 52.4%
dose excreted at 24 h ([13]; Dog No. 5, read-out: Urinary Recovery, % over 24 hour): 37.3%
dose excreted at 24 h ([13]; Dog No. 6, read-out: Urinary Recovery, % over 24 hour): 17.2%
dose excreted at 24 h ([13]; Dog No. 7, read-out: Urinary Recovery, % over 24 hour): 19.1%
dose excreted at 24 h ([13]; Dog No. 8, read-out: Urinary Recovery, % over 24 hour): 19.5%
concentration at 0.25 h [9]: 1450 ng/mL
concentration at 0.5 h [9]: 3640 ng/mL
concentration at 1 h [9]: 4780 ng/mL
concentration at 2 h [9]: 3790 ng/mL
concentration at 4 h [9]: 710 ng/mL
concentration at 6 h ([9]; 6 hours): < 200 ng/mL
